# Measured values: patent US20210230178A1, “TRIOXACARCIN ANALOGS AND DIMERS AS POTENT ANTICANCER AGENTS” (William Marsh Rice University, priority 2017, published 2021)
# Read-outs that look alike come from different tables or passages of the source. Square brackets hold non-standard residues; d marks the D form. Peptide text beside a SMILES is read from it. * marks the point of attachment. Dolaproine = CO[C@@H]([C@@H]1CCCN1)[C@@H](C)C(=O)O; Dil = CC[C@H](C)[C@H](NC)[C@@H](CC(=O)O)OC; X1 = C[C@@H](N*)[C@@H](O)c1ccccc1; NMeV = CN[C@H](C(=O)O)C(C)C
# Legend:
# [1] = test system: MES SA DX (human uterine sarcoma cell line with marked multidrug resistance); conditions: read-out: IC50 MES SA DX
# [2] = test system: HEK 293T (human embryonic kidney cancer cell line); conditions: read-out: IC50 HEK 293T
# [3] = test system: MES SA (human uterine sarcoma); conditions: read-out: IC50 MES SA
# [4] = test system: MES SA DX (human uterine sarcoma cell line with marked multidrug resistance); assay: cells; conditions: 72 h, read-out: IC50 MES SA DX
# [5] = test system: MES SA (human uterine sarcoma); assay: cells; conditions: 72 h, read-out: IC50 MES SA
# [6] = test system: HEK 293T (human embryonic kidney cancer cell line); assay: cells; conditions: 72 h, read-out: IC50 HEK 293T
SMILES,IC50 [1] [nM],IC50 [2] [nM],IC50 [3] [nM],IC50 [4] [nM],IC50 [5] [nM],IC50 [6] [nM]
"CC[C@H](C)[C@@H]([C@@H](CC(=O)N1CCC[C@H]1[C@H](OC)[C@@H](C)C(=O)N[C@H](C)[C@@H](O)c1ccccc1)OC)N(C)C(=O)[C@@H](NC(=O)[C@@H](NC)C(C)C)C(C)C [MMAE, monomethyl auristatin E, reference compound] (H-[NMeV]V[Dil][Dolaproine]-X1)",> 70,0.08,0.06,,,
COc1c2c(c(O)c3c4c(c(C)cc13)[C@@H]1O[C@@]3(C(OC)OC)O[C@@H]1[C@@](O[C@H]1C[C@@H](O)[C@@](O)(C(C)=O)[C@H](C)O1)(O4)[C@@]31CO1)C(=O)[C@@H](O)C[C@@H]2O[C@H]1C[C@@](C)(O)[C@H](OC(C)=O)[C@H](C)O1 [Trioxacarcin A],204,0.702,0.74,,,
"COc1c2c(c(O)c3c4c(c(C)cc13)[C@@H]1O[C@@]3(C(OC)OC)O[C@@H]1[C@@](O[C@H]1C[C@@H](O)[C@@](O)(C(C)=O)[C@H](C)O1)(O4)[C@@]31CO1)C(=O)[C@@H](O)C[C@@H]2O[C@H]1C[C@@](C)(O)[C@H](O)[C@H](C)O1 [Trioxacarcin D, reference compound]",> 1000,8.02,11.1,,,
"COc1c2c(c(O)c3c4c(c(C)cc13)[C@H]1O[C@]3(C5OCCO5)O[C@@H]1[C@@](O)(O4)[C@@]31CO1)C(=O)CCC2 [Trx8, (1S,2S,3aS,4R,13aR)-2-(1,3-Dioxolan-2-yl)-12,13a-dihydroxy-7-methoxy-5-methyl-3a,4,8,9,10,13a-hexahydro-11H-spiro[2,4-epoxyfuro[3,2-b]naphtho[2,3-h]chromene-1,2′-oxiran]-11-one]",,,,49.3,51.9,30.7
"COc1c2c(c(O)c3c4c(c(C)cc13)[C@H]1O[C@]3(C5OCCO5)O[C@@H]1[C@](OC)(O4)[C@@]31CO1)C(=O)CCC2 [Trx9, (1S,2S,3aS,4R,13aS)-2-(1,3-Dioxolan-2-yl)-12-hydroxy-7,13a-dimethoxy-5-methyl-3a,4,8,9,10,13a-hexahydro-11H-spiro[2,4-epoxyfuro[3,2-b]naphtho[2,3-h]chromene-1,2′-oxiran]-11-one]",,,,2.63,4.67,2.04
"COCO[C@@]12Oc3c(c(C)cc4c(OC)c5c(c(O)c34)C(=O)CCC5)[C@H]3O[C@](C4OCCO4)(O[C@@H]31)[C@]21CO1 [Trx10, (1S,2S,3aS,4R,13aS)-2-(1,3-Dioxolan-2-yl)-12-hydroxy-7-methoxy-13a-(methoxymethoxy)-5-methyl-3a,4,8,9,10,13a-hexahydro-11H-spiro[2,4-epoxyfuro[3,2-b]naphtho[2,3-h]chromene-1,2′-oxiran]-11-one]",,,,2.18,3.88,1.51
COc1c2c(c(O)c3c4c(c(C)cc13)C1OC3(C5OCCCO5)OC1[C@@](O)(O4)[C@@]31CO1)C(=O)CCC2 (stereo partly drawn) [Trx12],,,,5.72,3.72,2.46
COc1c2c(c(O)c3c4c(c(C)cc13)C1OC3(C5OCCCO5)OC1[C@@](OC(C)=O)(O4)[C@@]31CO1)C(=O)CCC2 (stereo partly drawn) [Trx14],,,,17.4,6.11,6.89
"C=CCO[C@@]12Oc3c(c(C)cc4c(OC)c5c(c(O)c34)C(=O)CCC5)[C@H]3O[C@](C4OCCCO4)(O[C@@H]31)[C@]21CO1 [Trx17, (1S,2S,3aS,4R,13aR)-13a-(Allyloxy)-2-(1,3-dioxan-2-yl)-12-hydroxy-7-methoxy-5-methyl-3a,4,8,9,10,13a-hexahydro-11H-spiro[2,4-epoxyfuro[3,2-b]naphtho[2,3-h]chromene-1,2′-oxiran]-11-one]",,,,3.48,4.91,2.77
"C=CCOC(=O)N(C(C)C)[C@H]1CO[C@@H](O[C@@]23Oc4c(c(C)cc5c(OC)c6c(c(O)c45)C(=O)CCC6)C4OC(C5OCCCO5)(OC42)[C@]32CO2)C[C@@H]1OC (stereo partly drawn) [Trx18, (1S,13aS)-2-(1,3-Dioxan-2-yl)-12-hydroxy-7-methoxy-5-methyl-11-oxo-3a,4,8,9,10,11-hexahydro-13aH-spiro[2,4-epoxyfuro[3,2-b]naphtho[2,3-h]chromene-1,2′-oxiran]-13a-yl 4-{[(allyloxy)carbonyl](isopropyl)amino}-2,4-dideoxy-3-O-methyl-α-L-threo-pentopyranoside]",,,,> 1000,> 1000,40.2
"COc1c2c(c(O)c3c4c(c(C)cc13)C1O[C@@]3(C5OCCCO5)OC1C(O[C@H]1C[C@H](OC)[C@@H](NC(C)C)CO1)(O4)[C@@]31CO1)C(=O)CCC2 (stereo partly drawn) [Trx19, (1S,2R)-2-(1,3-dioxan-2-yl)-12-hydroxy-7-methoxy-5-methyl-11-oxo-3a,4,8,9,10,11-hexahydro-13aH-spiro[2,4-epoxyfuro[3,2-b]naphtho[2,3-h]chromene-1,2′-oxiran]-13a-yl 2,4-dideoxy-4-(iso-propylamino)-3-O-methyl-α-L-threo-pentopyranoside]",,,,70.7,0.96,0.77
"COc1c2c(c(O)c3c4c(c(C)cc13)C1O[C@@]3(C5OCCCO5)OC1[C@@](O[C@H]1C[C@H](OC(C)=O)[C@@](O)(C(C)=O)[C@H](C)O1)(O4)[C@@]31CO1)C(=O)CCC2 (stereo partly drawn) [Trx20, (1S,2R,13aS)-2-(1,3-dioxan-2-yl)-12-hydroxy-7-methoxy-5-methyl-11-oxo-3a,4,8,9,10,11-hexahydro-13aH-spiro[2,4-epoxyfuro[3,2-b]naphtho[2,3-h]chromene-1,2′-oxiran]-13a-yl 4-C-acetyl-3-O-acetyl-2,6-dideoxy-α-L-lyxo-hexopyranoside]",,,,52.4,5.14,4.31
"COc1c2c(c(O)c3c4c(c(C)cc13)C1O[C@@]3(C5OCCCO5)OC1[C@@](O[C@H]1C[C@H](O)[C@@](O)([C@@H](C)O)[C@H](C)O1)(O4)[C@@]31CO1)C(=O)CCC2 (stereo partly drawn) [Trx23, (1S,2R,13aS)-2-(1,3-dioxan-2-yl)-12-hydroxy-7-methoxy-5-methyl-11-oxo-3a,4,8,9,10,11-hexahydro-13aH-spiro[2,4-epoxyfuro[3,2-b]naphtho[2,3-h]chromene-1,2′-oxiran]-13a-yl 2,6-dideoxy-4-C-[(1R)-1-hydroxyethyl]-α-L-lyxo-hexopyranoside]",,,,33.7,5.85,2.74
"COc1c2c(c(O)c3c4c(c(C)cc13)C1OC3(C5OCCCO5)OC1[C@@](OCC=CCO[C@@]15Oc6c(c(C)cc7c(OC)c8c(c(O)c67)C(=O)CCC8)C6OC(C7OCCCO7)(OC61)[C@]51CO1)(O4)[C@@]31CO1)C(=O)CCC2 (stereo partly drawn) [Trx24, (1S,2S,3aS,4R,13aR,1′″S,2′″S,3a′″S,4′″R,13a′″R)-13a,13a′-[(2Z)-but-2-ene-1,4-diylbis(oxy)]bis[2-(1,3-dioxan-2-yl)-12-hydroxy-7-methoxy-5-methyl-3a,4,8,9,10,13a-hexahydro-11H-spiro[2,4-epoxyfuro[3,2-b]naphtho[2,3-h]chromene-1,2′-oxiran]-11-one]]",> 1000,,> 1000,,,115
"CC(=O)Oc1cccc2c1C(=O)c1c(cc(C)c3c1O[C@]1(OC(C)=O)[C@H]4O[C@@](C5OCCCO5)(O[C@H]34)[C@]13CO3)C2=O [Trx28, (1S,2S,3aS,4R,13aS)-2-(1,3-Dioxan-2-yl)-5-methyl-7,12-dioxo-3a,4,7,12-tetrahydro-13aH-spiro[2,4-epoxyfuro[3,2-b]naphtho[2,3-h]chromene-1,2′-oxirane]-11,13a-diyl diacetate]",,,,11.9,11.1,11.2
"CO[C@@]12Oc3c4c(cc(C)c3[C@H]3O[C@](C5OCCCO5)(O[C@@H]31)[C@]21CO1)C(=O)c1cccc(OC(C)=O)c1C4=O [Trx29, (1S,2S,3aS,4R,13aR)-2-(1,3-Dioxan-2-yl)-13a-methoxy-5-methyl-7,12-dioxo-3a,7,12,13a-tetrahydro-4H-spiro[2,4-epoxyfuro[3,2-b]naphtho[2,3-h]chromene-1,2′-oxiran]-11-yl acetate]",,,,1.05,1.44,1.87
"Cc1cc2c(c3c1[C@H]1O[C@]4(C5OCCCO5)O[C@@H]1[C@@](O)(O3)[C@@]41CO1)C(=O)c1c(O)cccc1C2=O [Trx30, (1S,2S,3aS,4R,13aR)-2-(1,3-Dioxan-2-yl)-11,13a-dihydroxy-5-methyl-3a,13a-dihydro-4H-spiro[2,4-epoxyfuro[3,2-b]naphtho[2,3-h]chromene-1,2′-oxirane]-7,12-dione]",,,,37.8,42,50.5
"CO[C@@]12Oc3c4c(cc(C)c3[C@H]3O[C@](C5OCCCO5)(O[C@@H]31)[C@]21CO1)C(=O)c1cccc(O)c1C4=O [Trx31, (1S,2S,3aS,4R,13aR)-2-(1,3-Dioxan-2-yl)-11-hydroxy-13a-methoxy-5-methyl-3a,13a-dihydro-4H-spiro[2,4-epoxyfuro[3,2-b]naphtho[2,3-h]chromene-1,2′-oxirane]-7,12-dione]",,,,0.65,1.09,1.44
"CC(=O)Oc1c(Cl)ccc2c1C(=O)c1c(cc(C)c3c1O[C@]1(OC(C)=O)[C@H]4O[C@@](C5OCCCO5)(O[C@H]34)[C@]13CO3)C2=O [Trx32, (1S,2S,3aS,4R,13aS)-10-Chloro-2-(1,3-dioxan-2-yl)-5-methyl-7,12-dioxo-3a,4,7,12-tetrahydro-13aH-spiro[2,4-epoxyfuro[3,2-b]naphtho[2,3-h]chromene-1,2′-oxirane]-11,13a-diyl diacetate]",,,,4.41,5.96,6.73
"CO[C@@]12Oc3c4c(cc(C)c3[C@H]3O[C@](C5OCCCO5)(O[C@@H]31)[C@]21CO1)C(=O)c1ccc(Cl)c(OC(C)=O)c1C4=O [Trx33, (1S,2S,3aS,4R,13aR)-10-Chloro-2-(1,3-dioxan-2-yl)-13a-methoxy-5-methyl-7,12-dioxo-3a,7,12,13a-tetrahydro-4H-spiro[2,4-epoxyfuro[3,2-b]naphtho[2,3-h]chromene-1,2′-oxiran]-11-yl acetate]",,,,33.2,54.3,38.8
